Laboratory results published in patent US8658661B2, “Oxadiazole inhibitors of leukotriene production” (Boehringer Ingelheim International GmbH, priority 2010, dated 2014).

Tests used:
[1] = system: synthesis of LTB4 in human whole blood; experiment: Human whole blood assay (inhibition of LTB4 synthesis, calcimycin stimulated); format: cell-based; settings: heparinized human whole blood, calcimycin 20 μM, plasma LTB4
Summary of the method: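 Readout: plasma LTB4 by antibody-based HTRF. Compound added to heparinized human whole blood, 15 min 37° C; calcimycin 20 μM final (PBS pH 7.4), 30 min 37° C; spun 1500×g 5 min, plasma taken.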

[2] = biological target: T1, recombinant human FLAP protein (Homo sapiens, UniProt P20292); experiment: FLAP binding assay (SPA, displacement of [125I]L-691,831); settings: membranes of sf9 cells expressing recombinant human FLAP; [125I]L-691,831 probe; read-out: FLAP binding IC50
T1 construct: made in house; host or cells: Sf9 insect cells (100,000×g membrane pellet used)
T1 sequence (P20292 1-161): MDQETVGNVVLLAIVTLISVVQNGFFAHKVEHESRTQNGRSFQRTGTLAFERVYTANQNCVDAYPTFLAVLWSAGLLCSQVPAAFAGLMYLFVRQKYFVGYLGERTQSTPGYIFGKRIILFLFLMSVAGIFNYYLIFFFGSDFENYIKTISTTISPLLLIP
Summary of the method: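 Membranes from sf9 cells expressing human FLAP in pH 7.5 Tris buffer (MgCl2, EDTA, PMSF). Non-specific binding defined with 10 μM cold L-691,831.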

Row | IC50 [1] | IC50 [2] | Structure (SMILES)
1 | 270 nM | 16 nM | CC(c1ccc(-c2cnc(N)nc2)cc1)(c1noc(N2CCC(S(C)(=O)=O)CC2)n1)C1CC1 (stereo not drawn) [Example 259, 5-(4-{1-Cyclopropyl-1-[5-(4-methanesulfonyl-piperidin-1-yl)-[1,2,4]oxadiazol-3-yl]-ethyl}-phenyl)-pyrimidin-2-ylamine]
2 | 900 nM | 94 nM | CC(C)C(C)(c1ccc(-c2cnc(N)nc2)cc1)c1noc(N(C)CCN(C)C)n1 (stereo not drawn) [Example 260, N-(3-{1-[4-(2-Amino-pyrimidin-5-yl)-phenyl]-1,2-dimethyl-propyl}-[1,2,4]oxadiazol-5-yl)-N,N′,N′-trimethyl-ethane-1,2-diamine]
3 | 190 nM | 11 nM | CC(C)C(C)(c1ccc(-c2cnc(N)nc2)cc1)c1noc(N2CCN(C(C)(C)C)CC2)n1 (stereo not drawn) [Example 261, 5-(4-{1-[5-(4-tert-Butyl-piperazin-1-yl)-[1,2,4]oxadiazol-3-yl]-1,2-dimethyl-propyl}-phenyl)-pyrimidin-2-ylamine]
4 | 21 nM | 3.5 nM | C[C@@](c1ccc(-c2ccc(N)nc2)cc1)(c1noc(-c2cnn(C3COC3)c2)n1)C1CC1 [Example 263, 5-(4-{(R)-1-Cyclopropyl-1-[5-(1-oxetan-3-yl-1H-pyrazol-4-yl)-[1,2,4]oxadiazol-3-yl]-ethyl}-phenyl)-pyridin-2-ylamine]
5 | 120 nM | 11 nM | CC(C)N1CCN(c2nc(C(C)(c3ccc(-c4cnc(N)nc4)cc3)C(C)C)no2)CC1 (stereo not drawn) [Example 264, 5-(4-{1-[5-(4-Isopropyl-piperazin-1-yl)-[1,2,4]oxadiazol-3-yl]-1,2-dimethyl-propyl}-phenyl)-pyrimidin-2-ylamine]
6 | 22 nM | 5.1 nM | C[C@@](c1ccc(-c2cnc(N)cn2)cc1)(c1noc(-c2cnn(C3COC3)c2)n1)C1CC1 [Example 265, 5-(4-{(R)-1-Cyclopropyl-1-[5-(1-oxetan-3-yl-1H-pyrazol-4-yl)-[1,2,4]oxadiazol-3-yl]-ethyl}-phenyl)-pyrazin-2-ylamine; compound with trifluoro-acetic acid]
7 | 170 nM | 16 nM | CC(C)C(C)(c1ccc(-c2cnc(N)nc2)cc1)c1noc(N2CCN(C3CC3)CC2)n1 (stereo not drawn) [Example 266, 5-(4-{1-[5-(4-Cyclopropyl-piperazin-1-yl)-[1,2,4]oxadiazol-3-yl]-1,2-dimethyl-propyl}-phenyl)-pyrimidin-2-ylamine]
8 | 390 nM | 12 nM | C[C@](c1ccc(-c2cnc(N)nc2)cc1)(c1noc(-c2cnc(N3CCNCC3)cn2)n1)C1CC1 [Example 267, 5-(4-{(S)-1-Cyclopropyl-[5-(3,4,5,6-tetrahydro-2H-[1,2′]bipyrazinyl-5′-yl)-[1,2,4]oxadiazol-3-yl]-ethyl}-phenyl)-pyrimidin-2-ylamine]
9 | 600 nM | 9.3 nM | C[C@](c1ccc(-c2ccc(N)nc2)cc1)(c1noc(-c2cnc(N3CCNCC3)cn2)n1)C1CC1 [Example 268, 5-(4-{(S)-1-Cyclopropyl-1-[5-(3,4,5,6-tetrahydro-2H-[1,2′]bipyrazinyl-5′-yl)-[1,2,4]oxadiazol-3-yl]-ethyl}-phenyl)-pyridin-2-ylamine]
10 | 230 nM | 24 nM | CC(C)C(C)(c1ccc(-c2cnc(N)nc2)cc1)c1noc(N2CCN(C(=O)N(C)C)CC2)n1 (stereo not drawn) [Example 269, 4-(3-{1-[4-(2-Amino-pyrimidin-5-yl)-phenyl]-1,2-dimethyl-propyl}-[1,2,4]oxadiazol-5-yl)-piperazine-1-carboxylic acid dimethylamide]
11 | 96 nM | 9.8 nM | COC1CCN(c2nc(C(C)(c3ccc(-c4cnc(N)nc4)cc3)C(C)C)no2)CC1 (stereo not drawn) [Example 270, 5-(4-{1-[5-(4-Methoxy-piperidin-1-yl)-[1,2,4]oxadiazol-3-yl]-1,2-dimethyl-propyl}-phenyl)-pyrimidin-2-ylamine]
12 | 51 nM | 4.9 nM | C[C@@](c1ccc(-c2cnc(N)nc2)cc1)(c1noc(-c2cnn(C3CC3)c2)n1)C1CC1 [Example 271, 5-(4-{(R)-1-Cyclopropyl-1-[5-(1-cyclopropyl-1H-pyrazol-4-yl)-[1,2,4]oxadiazol-3-yl]-ethyl}-phenyl)-pyrimidin-2-ylamine]
13 | > 5000 nM | 280 nM | CC(C)C(C)(c1ccc(-c2cnc(N)nc2)cc1)c1noc(N2CCN(CC(=O)O)CC2)n1 (stereo not drawn) [Example 272, [4-(3-{1-[4-(2-Amino-pyrimidin-5-yl)-phenyl]-1,2-dimethyl-propyl}-[1,2,4]oxadiazol-5-yl)-piperazin-1-yl]-acetic acid]
14 | 56 nM | 6.1 nM | Cn1cc(-c2nc(C(C)(c3ccc(-c4cnc5[nH]ccc5n4)cc3)C3CC3)no2)cn1 (stereo not drawn) [Example 273, 2-(4-{1-Cyclopropyl-1-[5-(1-methyl-1H-pyrazol-4-yl)-[1,2,4]oxadiazol-3-yl]-ethyl}-phenyl)-5H-pyrrolo[2,3-b]pyrazine]
15 | 200 nM | 40 nM | CC(c1ccc(-c2cnc(N)nc2)cc1)(c1noc(N2CC(O)C2)n1)C1CC1 (stereo not drawn) [Example 274, 1-(3-{1-[4-(2-Amino-pyrimidin-5-yl)-phenyl]-1-cyclopropyl-ethyl}-[1,2,4]oxadiazol-5-yl)-azetidin-3-ol]
16 | 220 nM | 11 nM | CN(C)C(=O)Cn1cc(-c2nc(C(C)(c3ccc(-c4cnc(N)nc4F)cc3)C3CC3)no2)cn1 (stereo not drawn) [Example 275, 2-[4-(3-{1-[4-(2-Amino-4-fluoro-pyrimidin-5-yl)-phenyl]-1-cyclopropyl-ethyl}-[1,2,4]oxadiazol-5-yl)-pyrazol-1-yl]-N,N-dimethyl-acetamide]
17 | 260 nM | 28 nM | CC1(O)CN(c2nc(C(C)(c3ccc(-c4cnc(N)nc4)cc3)C3CC3)no2)C1 (stereo not drawn) [Example 276, 1-(3-{1-[4-(2-Amino-pyrimidin-5-yl)-phenyl]-1-cyclopropyl-ethyl}-[1,2,4]oxadiazol-5-yl)-3-methyl-azetidin-3-ol]
18 | > 5000 nM | 64 nM | CN(C)C(=O)Cn1cc(-c2nc(C(C)(c3ccc(-c4ccc(F)nc4N)cc3)C3CC3)no2)cn1 (stereo not drawn) [Example 277, 2-[4-(3-{1-[4-(2-Amino-6-fluoro-pyridin-3-yl)-phenyl]-1-cyclopropyl-ethyl}-[1,2,4]oxadiazol-5-yl)-pyrazol-1-yl]-N,N-dimethyl-acetamide]
19 | 150 nM | 5 nM | CN(C)C(=O)Cn1cc(-c2nc(C(C)(c3ccc(-c4ccc(N)nc4F)cc3)C3CC3)no2)cn1 (stereo not drawn) [Example 278, 2-[4-(3-{1-[4-(6-Amino-2-fluoro-pyridin-3-yl)-phenyl]-1-cyclopropyl-ethyl}-[1,2,4]oxadiazol-5-yl)-pyrazol-1-yl]-N,N-dimethyl-acetamide]
20 | > 5000 nM | 76 nM | CC(C)Nc1ncc(-c2ccc([C@](C)(c3noc(-c4cnn(CC(=O)N(C)C)c4)n3)C3CC3)cc2)cn1 [Example 279, 2-[4-(3-{(R)-1-Cyclopropyl-1-[4-(2-isopropylamino-pyrimidin-5-yl)-phenyl]-ethyl}-[1,2,4]oxadiazol-5-yl)-pyrazol-1-yl]-N,N-dimethyl-acetamide]
21 | 35 nM | 3 nM | CNc1ccc(-c2ccc([C@](C)(c3noc(-c4cnn(CC(=O)N(C)C)c4)n3)C3CC3)cc2)cn1 [Example 280, 2-[4-(3-{(R)-1-Cyclopropyl-1-[4-(6-methylamino-pyridin-3-yl)-phenyl]-ethyl}-[1,2,4]oxadiazol-5-yl)-pyrazol-1-yl]-N,N-dimethyl-acetamide]
